What was measured:
[1] = biological target: active mouse DPP1 enzyme (Mus musculus (Mouse), UniProt P97821); assay: Mouse DPP1 enzyme IC50 assay; format: biochemical; conditions: active mouse DPP1, H-Gly-Arg-AMC substrate 400 μM
Method: 25 μL of compound in Assay Buffer plus 5% DMSO was first added to 50 μL of active mouse DPP1 enzyme at a concentration of 62.5 pg/μL and allowed to pre-incubate for 10 minutes at 37° C. after which 50 μL of 1000 μM H-Gly-Arg-AMC substrate (Bachem; St. Torrance, CA) was added, giving final substrate concentration of 400 μM and a final DMSO concentration of 1%. Substrate cleavage was measured for 90 minutes at 37° C., with fluorescence at Excitation/Emission 350/450 nm measured every 5 minutes. DPP1 concentration was interpolated based on its activity relative to a standard curve of recombinant active mouse DPP1 enzyme. IC50 values for each compound were calculated via the XLFit (IDBS Version 5.3.1.3) Add-On to Microsoft Excel using the four parameter fit equation y=(A+((B-A)/(1+((C/x)^D)))), which appears as equation number 205 (4 Parameter Logistic Model or Sigmoidal Dose-Response Model) in XLFit. Default constraints were used for each Parameter.

[2] = biological target: human DPP1 enzyme (Homo sapiens (Human), UniProt P53634); assay: Human DPP1 enzyme IC50 assay; format: biochemical; conditions: recombinant human DPP1, H-Gly-Arg-AMC substrate 400 μM
Outline: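 Fluorogenic readout (350/450 nm, every 5 min over 90 min, 37°C) of H-Gly-Arg-AMC cleavage at 400 μM final substrate. Compounds met activated DPP1 first for a 10-min 37°C pre-incubation in MES buffer pH 6.0 with DTT, 1% DMSO final. Four-parameter sigmoidal fit gave IC50.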

[3] = biological target: DPP1 in HL-60 cells (Homo sapiens (Human), UniProt P53634); assay: DPP1 Cell IC50 assay; format: cell-based; conditions: H-Gly-Phe-AFC substrate, 60 min pre-incubation
Outline: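 HL-60 cells (5×10^5 live cells/mL in PBS) were pre-incubated with compound in 0.5% DMSO for 60 min at 37 °C, 5% CO2, with shaking, then given 500 μM H-Gly-Phe-AFC solution for 30 min. Fluorescence was read at 400/505 nm. % inhibition was taken against vehicle wells, and IC50 came from a four-parameter logistic fit.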

active mouse DPP1 enzyme, sequence (P97821 25-134): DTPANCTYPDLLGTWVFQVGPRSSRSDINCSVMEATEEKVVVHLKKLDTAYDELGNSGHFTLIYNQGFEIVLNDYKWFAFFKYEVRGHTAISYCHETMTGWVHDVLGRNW
active mouse DPP1 enzyme, sequence (P97821 231-393): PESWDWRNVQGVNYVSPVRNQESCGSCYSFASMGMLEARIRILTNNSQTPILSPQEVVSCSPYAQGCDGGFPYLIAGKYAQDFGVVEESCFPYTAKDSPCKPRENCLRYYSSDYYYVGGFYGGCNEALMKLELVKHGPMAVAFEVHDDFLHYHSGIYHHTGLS
active mouse DPP1 enzyme, sequence (P97821 394-462): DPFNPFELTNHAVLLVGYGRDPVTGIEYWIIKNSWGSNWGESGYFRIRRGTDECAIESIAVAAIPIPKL
human DPP1 enzyme, sequence (P53634 25-134): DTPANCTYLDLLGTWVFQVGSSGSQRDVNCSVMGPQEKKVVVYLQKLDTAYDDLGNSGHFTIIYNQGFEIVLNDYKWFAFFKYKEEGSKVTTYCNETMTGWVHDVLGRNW
human DPP1 enzyme, sequence (P53634 231-394): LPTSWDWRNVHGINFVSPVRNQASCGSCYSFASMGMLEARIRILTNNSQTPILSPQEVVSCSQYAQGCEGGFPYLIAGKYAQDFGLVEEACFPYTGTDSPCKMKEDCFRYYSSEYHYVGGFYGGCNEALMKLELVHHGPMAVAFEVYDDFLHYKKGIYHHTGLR
human DPP1 enzyme, sequence (P53634 395-463): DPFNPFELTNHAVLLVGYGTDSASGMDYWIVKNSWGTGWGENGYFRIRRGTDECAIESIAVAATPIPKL
DPP1 in HL-60 cells, sequence (P53634 25-134): as the sequence (P53634 25-134) above
DPP1 in HL-60 cells, sequence (P53634 231-394): as the sequence (P53634 231-394) above
DPP1 in HL-60 cells, sequence (P53634 395-463): as the sequence (P53634 395-463) above

IC50 [1] [nM] | IC50 [2] [nM] | IC50 [3] [nM] | SMILES
5 to 20 | ≥ 15 | 1 to 2.5 | CN(C)C[C@H](O)C(=O)N[C@H](C#N)Cc1ccc(-c2ccc3oc(=O)n(C)c3c2)cc1 [Compound 101, (2S)—N-[(1S)-1-cyano-2-[4-(3-methyl-2-oxo-1,3-benzoxazol-5-yl)phenyl]ethyl]-3-(dimethylamino)-2-hydroxypropanamide]
≤ 5 | ≥ 15 | ≥ 2.5 | CN(C)C[C@H](O)C(=O)N[C@H](C#N)Cc1ccc(-c2ccc3c(c2)C2(CN(C)C2)OC3=O)cc1 [Compound 137, (S)—N—((S)-1-cyano-2-(4-(1-methyl-3′-oxo-3′H-spiro[azetidine-3,1′-isobenzofuran]-6′-yl)phenyl)ethyl)-3-(dimethylamino)-2-hydroxypropanamide]
5 to 20 | 5 to 15 | ≤ 1 | CN(C)C[C@H](O)C(=O)N[C@H](C#N)Cc1ccc(-c2ccc3oc(=O)n(C)c3c2)cc1F [Compound 138, (2S)—N-[(1S)-1-cyano-2-[2-fluoro-4-(3-methyl-2-oxo-1,3-benzoxazol-5-yl)phenyl]ethyl]-3-(dimethylamino)-2-hydroxypropanamide]
5 to 20 | ≥ 15 | ≥ 2.5 | CN(C)C[C@H](O)C(=O)N[C@H](C#N)Cc1ccc(-c2ccc3oc(=O)n(CCN4CCOCC4)c3c2)cc1 [Compound 140, (2S)—N-[(1S)-1-cyano-2-(4-{3-[2-(morpholin-4-yl)ethyl]-2-oxo-1,3-benzoxazol-5-yl}phenyl)ethyl]-3-(dimethylamino)-2-hydroxypropanamide]
≥ 20 | ≥ 15 | ≥ 2.5 | CC(C)C(N)CC(=O)N[C@H](C#N)Cc1ccc(-c2ccc3oc(=O)n(C)c3c2)cc1 (stereo partly drawn) [Compound 164, 3-amino-N-[(1S)-1-cyano-2-[4-(3-methyl-2-oxo-2,3-dihydro-1,3-benzoxazol-5-yl)phenyl]ethyl]-4-methylpentanamide]
≥ 20 | ≥ 15 | ≥ 2.5 | C=CC[C@@H](N)CC(=O)N[C@H](C#N)Cc1ccc(-c2ccc3oc(=O)n(C)c3c2)cc1 [Compound 165, (3R)-3-amino-N-[(1S)-1-cyano-2-[4-(3-methyl-2-oxo-2,3-dihydro-1,3-benzoxazol-5-yl)phenyl]ethyl]hex-5-enamide]
≥ 20 | ≥ 15 | ≥ 2.5 | C=CCC(CN)C(=O)N[C@H](C#N)Cc1ccc(-c2ccc3oc(=O)n(C)c3c2)cc1 (stereo partly drawn) [Compound 167, 2-(aminomethyl)-N-[(1S)-1-cyano-2-[4-(3-methyl-2-oxo-2,3-dihydro-1,3-benzoxazol-5-yl)phenyl]ethyl]pent-4-enamide]
5 to 20 | 5 to 15 | ≥ 2.5 | C[C@H](O)[C@@](C)(N)C(=O)N[C@H](C#N)Cc1ccc(-c2ccc3oc(=O)n(C)c3c2)cc1 [Compound 171D, (2R,3S)-2-amino-N-[(1S)-1-cyano-2-[4-(3-methyl-2-oxo-1,3-benzoxazol-5-yl)phenyl]ethyl]-3-hydroxy-2-methylbutanamide]
≥ 20 | ≥ 15 | ≥ 2.5 | Cn1c(=O)oc2ccc(-c3ccc(C[C@@H](C#N)NC(=O)C[C@H](N)Cc4cccs4)cc3)cc21 [Compound 182, (3S)-3-amino-N-[(1S)-1-cyano-2-[4-(3-methyl-2-oxo-2,3-dihydro-1,3-benzoxazol-5-yl)phenyl]ethyl]-4-(thiophen-2-yl)butanamide]
≥ 20 | ≥ 15 | – | Cn1c(=O)oc2ccc(-c3ccc(C[C@@H](C#N)NC(=O)COC(=O)c4ccco4)cc3)cc21 [Compound 243, {[(1S)-1-cyano-2-[4-(3-methyl-2-oxo-1,3-benzoxazol-5-yl)phenyl]ethyl]carbamoyl}methyl furan-2-carboxylate]
≥ 20 | ≥ 15 | ≥ 2.5 | N#Cc1ccc(-c2ccc(C[C@@H](C#N)NC(=O)C3(N)CCOCC3)c(I)c2)cc1 [Compound 248, 4-amino-N-[(1S)-1-cyano-2-{4′-cyano-3-iodo-[1,1′-biphenyl]-4-yl}ethyl]oxane-4-carboxamide]
5 to 20 | ≥ 15 | – | CC(O)CNCC(=O)N[C@@H](C#N)Cc1ccc(-c2ccc3oc(=O)n(C)c3c2)cc1 (stereo partly shown) [compound 175]

Source: patent US20260008758A1, “LINEAR DIPEPTIDYL PEPTIDASE 1 INHIBITORS AND USES THEREOF” (Insmed Incorporated, priority 2024, published 2026)
